This note sets out measurements from patent US11897859B1, “Coumarin compounds as antibacterial agents” (KING FAISAL UNIVERSITY, priority 2023, dated 2024).

In brackets after ≈: the same amount, converted by molar mass. Read-outs that look alike come from different tables or passages of the source.

Experiment [1] has as its system Staphylococcus aureus ATCC 29213. The experiment is described as follows: In vitro antibacterial activity (CLSI M07-A10 dilution), MIC. Particulars: ATCC29213. It counts as cell-based.
Experiment [2] relates to Pseudomonas aeruginosa MTCC 741. The description is as above. The experiment is classed as cell-based. To be noted: MTCC741.
Experiment [3] deals with Escherichia coli MTCC 443. Described as above. It counts as cell-based. Particulars: MTCC443.
The test system of experiment [4] is Mycobacterium tuberculosis H37Rv strain. Description: Anti-tubercular alamar blue microplate MIC assay. It counts as cell-based. To be noted: 168 h, M. tuberculosis H37Rv, 7 days at 37° C., read-out: anti-mycobacterial activity (MIC). In general terms: Resazurin is reduced to fluorescent resorufin, in cell work by metabolically active cells.
Experiment [5] deals with Bacillus subtilis MTCC 441. The experiment is described as follows: In vitro antibacterial activity (CLSI M07-A10 dilution), MIC. It counts as cell-based. Particulars: MTCC441.
Another experiment concerns the target T1, DNA gyrase from E. coli (Escherichia coli, UniProt P0AES4+P0AES6).
T1 construct: purchased Inspiralis
The experiment is described as follows: Inhibitory activity on E. coli DNA gyrase (Inspiralis supercoiling assay). The experiment is classed as biochemical. The method, then:
Inhibitory potencies were investigated utilizing the Inspiralis assay on streptavidin-coated 96-well microtiter plates. First, the plates were rehydrated with buffer (20 mM Tris-HCl with pH 7.6, 0.01% w/v BSA, 0.05% v/v Tween 20, 137 mM NaCl) and the biotinylated oligonucleotide was then immobilized. After washing off the unbound oligonucleotide, the enzyme test was performed. […] Reaction solutions were incubated at 37° C. for 30 min. After that, the TF buffer (50 mM NaOAc with pH 5.0, 50 mM NaCl and 50 mM MgCl2) was added to terminate the enzymatic reaction. After additional incubation for 30 min at rt, during which biotinoligonucleotide-plasmid triplex was formed, the unbound plasmid was washed off using TF buffer and SybrGOLD in T10 buffer (10 mM Tris HCl with pH 8.0 and 1 mM EDTA) was added. The fluorescence was measured with a microplate reader (BioTek Synergy H4, excitation: 485 nm, emission: 535 nm). […] GraphPad Prism software was used to calculate the IC50 values. The result is given as the average value of three independent measurements.

The test system of experiment [6] is Enterococcus faecium ATCC 51559 (VRE resistant). The experiment is described as follows: In vitro antibacterial activity (CLSI M07-A10 dilution), MIC. The experiment is classed as cell-based.
For experiment [7], the system named is Staphylococcus aureus ATCC BAA-1556 (MERSA resistant). The description is as above. It counts as cell-based. Particulars: ATCCBAA1556.
Experiment [8] has as its system Klebsiella pneumonia MTCC 618. The description is as above. It counts as cell-based. Particulars: Klebsiella pneumoniae, MTCC618.
In experiment [9] the test system is Enterococcus faecium ATCC 35667. The experiment is described as above. To be noted: ATCC35667. It counts as cell-based.
Experiment [10] relates to Staphylococcus epidermidis. Described as above. It counts as cell-based.

T1 sequence (P0AES4 whole entry, one chain of several): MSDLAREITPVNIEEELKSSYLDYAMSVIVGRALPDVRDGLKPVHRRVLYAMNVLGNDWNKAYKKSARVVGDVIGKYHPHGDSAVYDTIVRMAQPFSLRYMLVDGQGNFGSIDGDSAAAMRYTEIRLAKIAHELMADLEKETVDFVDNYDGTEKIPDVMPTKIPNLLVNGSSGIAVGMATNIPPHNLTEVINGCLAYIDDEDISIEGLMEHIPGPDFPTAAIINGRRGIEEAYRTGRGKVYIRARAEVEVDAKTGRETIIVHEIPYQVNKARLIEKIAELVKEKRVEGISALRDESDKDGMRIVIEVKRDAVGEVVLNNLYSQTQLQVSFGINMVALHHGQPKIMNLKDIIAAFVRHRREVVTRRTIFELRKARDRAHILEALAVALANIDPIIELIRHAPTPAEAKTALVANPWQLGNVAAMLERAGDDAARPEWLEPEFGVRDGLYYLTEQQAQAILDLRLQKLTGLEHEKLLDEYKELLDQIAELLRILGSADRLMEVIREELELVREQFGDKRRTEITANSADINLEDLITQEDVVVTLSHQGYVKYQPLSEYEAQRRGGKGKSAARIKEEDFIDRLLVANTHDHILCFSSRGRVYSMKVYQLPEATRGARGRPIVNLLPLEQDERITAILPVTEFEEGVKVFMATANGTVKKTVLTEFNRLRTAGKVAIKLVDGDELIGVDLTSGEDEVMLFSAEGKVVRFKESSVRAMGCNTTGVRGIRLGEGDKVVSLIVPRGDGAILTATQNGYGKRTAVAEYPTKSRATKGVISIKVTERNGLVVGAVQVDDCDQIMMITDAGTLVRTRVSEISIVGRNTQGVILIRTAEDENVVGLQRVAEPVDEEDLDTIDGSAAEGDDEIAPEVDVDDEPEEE

For the compound `CCC(=O)Nc1ccc2cc(-c3cc(C(=O)O)ccc3CN(C)C3CCCCC3)c(=O)oc2c1` [Compound 12, 4-((cyclohexyl(methyl)amino)methyl)-3-(2-oxo-7-propionamido-2H-chromen-3-yl)benzoic acid], the MIC (in general, the lowest concentration that inhibits growth of the organism) in experiment [1] is 2 µg/mL (≈ 4.32 µM); in experiment [2] it was 1 µg/mL (≈ 2.16 µM); in [3] it was 4 µg/mL (≈ 8.65 µM); in experiment [4], 8 µg/mL (≈ 17.3 µM); in experiment [5] it was 0.75 µg/mL (≈ 1.62 µM); in experiment [6], 1 µg/mL (≈ 2.16 µM). Also, the MIC is 4 µg/mL (≈ 8.65 µM) in [7]; 1 µg/mL (≈ 2.16 µM) in experiment [8] (Klebsiella pneumonia MTCC 618, read-out: MIC); 0.75 µg/mL (≈ 1.62 µM) in [9]; 1 µg/mL (≈ 2.16 µM) in experiment [10]. For the same compound, the IC50 (in general, the concentration at which inhibition is half-maximal) on DNA gyrase from E. coli turned out to be 78 nM.

In turn, `CN[C@H](CC(C)C)C(=O)N[C@H]1C(=O)N[C@@H](CC(N)=O)C(=O)N[C@H]2C(=O)N[C@H]3C(=O)N[C@H](C(=O)N[C@H](C(=O)O)c4cc(O)cc(O)c4-c4cc3ccc4O)[C@H](O)c3ccc(c(Cl)c3)Oc3cc2cc(c3O[C@@H]2O[C@H](CO)[C@@H](O)[C@H](O)[C@H]2O[C@H]2C[C@](C)(N)[C@H](O)[C@H](C)O2)Oc2ccc(cc2Cl)[C@H]1O` [Vancomycin, reference compound] gave an MIC in [8] of over 128 µg/mL.
